PMC8226474, “Design, Syntheses, and Bioevaluations of Some Novel N^2-Acryloylbenzohydrazides as Chemostimulants and Cytotoxic Agents” (Medicines, 2021)

What was measured:
[1] = test system: HCT 116 cells; experiment: Cytotoxicity assay, HCT 116 colon cancer cells; format: cell-based, human; settings: Homo sapiens, HCT-116, 48 h, read-out: percentage inhibition of HCT 116 cells
Excerpt: (§1) Evaluation of the cytotoxic properties of the compounds presented in Table 1, Table 2, Table 3 and Table 4 was undertaken using the procedure outlined in [7]. In brief, the HCT 116 cells were obtained from the ATCC and cultured in McCoy’s 5A medium. The CRL 1790 cells were obtained from the ATCC and cultured in Minimum Essential Medium. The MCF-7 and MDA-MBA-231 cells were obtained from the Saskatchewan Cancer Agency and cultured in DMEM. In each assay the culture medium was supplemented with 10% fetal bovine serum and 1% penicillin–streptomycin antibiotics. The time of the bioassays was 48 h, unless indicated otherwise. All determinations were carried out in triplicate on three different occasions.

[2] = test system: MCF-7 cells; experiment: Cytotoxicity assay, MCF-7 breast cancer cells; format: cell-based, human; settings: for inhibition at 10 µM / inhibition at 100 µM / IC50: Homo sapiens, MCF7, 48 h; for inhibition at 10 µM / inhibition at 100 µM: read-out: percentage inhibition of MCF-7 cells; for IC50 / SI (selectivity index): Table 2; for IC50: read-out: Neoplastic Cells IC50, MCF-7; for SI (selectivity index): IC50 CRL 1790 / IC50 MCF-7
Excerpt: as §1

[3] = test system: MDA-MB-231 cells; experiment: Cytotoxicity assay, MDA-MB-231 breast cancer cells; format: cell-based, human; settings: Homo sapiens, MDA-MB-231, 48 h, read-out: percentage inhibition of MDA-MB-231 cells
Excerpt: as §1

[4] = test system: CRL 1790 cells; experiment: Cytotoxicity assay, non-malignant CRL 1790 colon cells; format: cell-based; settings: Homo sapiens, 48 h, Table 2, read-out: Non-Malignant CRL 1790 Cells IC50
Excerpt: as §1

Row | SMILES | inhibition at 10 µM [1] | inhibition at 100 µM [1] | inhibition at 10 µM [2] | inhibition at 100 µM [2] | inhibition at 10 µM [3] | inhibition at 100 µM [3] | melting point | IC50 [2] | SI (selectivity index) [2] | IC50 [4]
1 | C=CC(=O)NNC(=O)c1ccc(F)cc1 [1b, N^2-Acryloyl-4-fluorobenzohydrazide] | -2.35 ± 2.24% | 60.7 ± 3.22% | -40.1 ± 3.34% | 33.2 ± 3.13% | -7.37 ± 1.52% | 39.9 ± 2.51% |  |  |  | 
2 | C=CC(=O)NNC(=O)c1ccc(Br)cc1 [1c, N^2-Acryloyl-4-bromobenzohydrazide] | -3.28 ± 1.5% | 87.9 ± 0.91% | -4.68 ± 3.17% | 46.6 ± 3.35% | -16.5 ± 1.45% | 88.7 ± 1.26% | 256 to 259 °C |  |  | 
3 | C=CC(=O)NNC(=O)c1ccccc1Cl [1e, N^2-Acryloyl-2-chlorobenzohydrazide] | 4.3 ± 1.38% | 75.7 ± 1.65% | 8.66 ± 1.81% | 75.8 ± 2.76% | -7.15 ± 2.29% | 91.9 ± 4.53% | 165 to 167 °C |  |  | 
4 | C=CC(=O)NNC(=O)c1cccc(Cl)c1 [1f, N^2-Acryloyl-3-chlorobenzohydrazide] | 13.5 ± 1.79% | 95.7 ± 1.71% | -15.5 ± 3.38% | 85.9 ± 2.7% | 15.6 ± 3.14% | 98.7 ± 0.92% | 155 to 158 °C |  |  | 
5 | C=CC(=O)NNC(=O)c1ccc(Cl)c(Cl)c1 [1g, N^2-Acryloyl-3,4-dichlorobenzohydrazide] | 6.72 ± 1.97% | > 100% | -50.5 ± 3.27% | 97.4 ± 2.6% | -19.4 ± 3.01% | 139.8 ± 1.03% | 172 to 175 °C |  |  | 
6 | C=CC(=O)NNC(=O)c1cccc(C)c1 [1i, N^2-Acryloyl-3-methylbenzohydrazide] | 15.4 ± 2.13% | 93.9 ± 3.35% | -82.8 ± 3.48% | 44.2 ± 2.96% | -5.91 ± 3.86% | 53.3 ± 2.89% | 138 to 140 °C |  |  | 
7 | C=CC(=O)NNC(=O)c1ccccc1C [1j, N^2-Acryloyl-2-methylbenzohydrazide] | 10.4 ± 1.61% | 62.1 ± 2.48% | 53.3 ± 3.07% | > 100% | -2.64 ± 2.37% | 46.8 ± 3.63% | 151 to 153 °C | 9.14 ± 1.31 µM | >10.9 | > 100 µM
8 | C=CC(=O)NNC(=O)c1ccc(C)cc1 [1k, N^2-Acryloyl-4-methylbenzohydrazide] | 11.5 ± 2.99% | > 100% | 55.3 ± 3.05% | > 100% | -8.78 ± 1.52% | 74.7 ± 2.96% | 157 to 160 °C | 5.54 ± 0.51 µM | >18.1 | > 100 µM
